The test deals with Maltase-glucoamylase (Homo sapiens, UniProt O43451). The test can be described thus: Inhibition of Alpha-glucosidase (unknown origin).
Maltase-glucoamylase, sequence (O43451 whole entry): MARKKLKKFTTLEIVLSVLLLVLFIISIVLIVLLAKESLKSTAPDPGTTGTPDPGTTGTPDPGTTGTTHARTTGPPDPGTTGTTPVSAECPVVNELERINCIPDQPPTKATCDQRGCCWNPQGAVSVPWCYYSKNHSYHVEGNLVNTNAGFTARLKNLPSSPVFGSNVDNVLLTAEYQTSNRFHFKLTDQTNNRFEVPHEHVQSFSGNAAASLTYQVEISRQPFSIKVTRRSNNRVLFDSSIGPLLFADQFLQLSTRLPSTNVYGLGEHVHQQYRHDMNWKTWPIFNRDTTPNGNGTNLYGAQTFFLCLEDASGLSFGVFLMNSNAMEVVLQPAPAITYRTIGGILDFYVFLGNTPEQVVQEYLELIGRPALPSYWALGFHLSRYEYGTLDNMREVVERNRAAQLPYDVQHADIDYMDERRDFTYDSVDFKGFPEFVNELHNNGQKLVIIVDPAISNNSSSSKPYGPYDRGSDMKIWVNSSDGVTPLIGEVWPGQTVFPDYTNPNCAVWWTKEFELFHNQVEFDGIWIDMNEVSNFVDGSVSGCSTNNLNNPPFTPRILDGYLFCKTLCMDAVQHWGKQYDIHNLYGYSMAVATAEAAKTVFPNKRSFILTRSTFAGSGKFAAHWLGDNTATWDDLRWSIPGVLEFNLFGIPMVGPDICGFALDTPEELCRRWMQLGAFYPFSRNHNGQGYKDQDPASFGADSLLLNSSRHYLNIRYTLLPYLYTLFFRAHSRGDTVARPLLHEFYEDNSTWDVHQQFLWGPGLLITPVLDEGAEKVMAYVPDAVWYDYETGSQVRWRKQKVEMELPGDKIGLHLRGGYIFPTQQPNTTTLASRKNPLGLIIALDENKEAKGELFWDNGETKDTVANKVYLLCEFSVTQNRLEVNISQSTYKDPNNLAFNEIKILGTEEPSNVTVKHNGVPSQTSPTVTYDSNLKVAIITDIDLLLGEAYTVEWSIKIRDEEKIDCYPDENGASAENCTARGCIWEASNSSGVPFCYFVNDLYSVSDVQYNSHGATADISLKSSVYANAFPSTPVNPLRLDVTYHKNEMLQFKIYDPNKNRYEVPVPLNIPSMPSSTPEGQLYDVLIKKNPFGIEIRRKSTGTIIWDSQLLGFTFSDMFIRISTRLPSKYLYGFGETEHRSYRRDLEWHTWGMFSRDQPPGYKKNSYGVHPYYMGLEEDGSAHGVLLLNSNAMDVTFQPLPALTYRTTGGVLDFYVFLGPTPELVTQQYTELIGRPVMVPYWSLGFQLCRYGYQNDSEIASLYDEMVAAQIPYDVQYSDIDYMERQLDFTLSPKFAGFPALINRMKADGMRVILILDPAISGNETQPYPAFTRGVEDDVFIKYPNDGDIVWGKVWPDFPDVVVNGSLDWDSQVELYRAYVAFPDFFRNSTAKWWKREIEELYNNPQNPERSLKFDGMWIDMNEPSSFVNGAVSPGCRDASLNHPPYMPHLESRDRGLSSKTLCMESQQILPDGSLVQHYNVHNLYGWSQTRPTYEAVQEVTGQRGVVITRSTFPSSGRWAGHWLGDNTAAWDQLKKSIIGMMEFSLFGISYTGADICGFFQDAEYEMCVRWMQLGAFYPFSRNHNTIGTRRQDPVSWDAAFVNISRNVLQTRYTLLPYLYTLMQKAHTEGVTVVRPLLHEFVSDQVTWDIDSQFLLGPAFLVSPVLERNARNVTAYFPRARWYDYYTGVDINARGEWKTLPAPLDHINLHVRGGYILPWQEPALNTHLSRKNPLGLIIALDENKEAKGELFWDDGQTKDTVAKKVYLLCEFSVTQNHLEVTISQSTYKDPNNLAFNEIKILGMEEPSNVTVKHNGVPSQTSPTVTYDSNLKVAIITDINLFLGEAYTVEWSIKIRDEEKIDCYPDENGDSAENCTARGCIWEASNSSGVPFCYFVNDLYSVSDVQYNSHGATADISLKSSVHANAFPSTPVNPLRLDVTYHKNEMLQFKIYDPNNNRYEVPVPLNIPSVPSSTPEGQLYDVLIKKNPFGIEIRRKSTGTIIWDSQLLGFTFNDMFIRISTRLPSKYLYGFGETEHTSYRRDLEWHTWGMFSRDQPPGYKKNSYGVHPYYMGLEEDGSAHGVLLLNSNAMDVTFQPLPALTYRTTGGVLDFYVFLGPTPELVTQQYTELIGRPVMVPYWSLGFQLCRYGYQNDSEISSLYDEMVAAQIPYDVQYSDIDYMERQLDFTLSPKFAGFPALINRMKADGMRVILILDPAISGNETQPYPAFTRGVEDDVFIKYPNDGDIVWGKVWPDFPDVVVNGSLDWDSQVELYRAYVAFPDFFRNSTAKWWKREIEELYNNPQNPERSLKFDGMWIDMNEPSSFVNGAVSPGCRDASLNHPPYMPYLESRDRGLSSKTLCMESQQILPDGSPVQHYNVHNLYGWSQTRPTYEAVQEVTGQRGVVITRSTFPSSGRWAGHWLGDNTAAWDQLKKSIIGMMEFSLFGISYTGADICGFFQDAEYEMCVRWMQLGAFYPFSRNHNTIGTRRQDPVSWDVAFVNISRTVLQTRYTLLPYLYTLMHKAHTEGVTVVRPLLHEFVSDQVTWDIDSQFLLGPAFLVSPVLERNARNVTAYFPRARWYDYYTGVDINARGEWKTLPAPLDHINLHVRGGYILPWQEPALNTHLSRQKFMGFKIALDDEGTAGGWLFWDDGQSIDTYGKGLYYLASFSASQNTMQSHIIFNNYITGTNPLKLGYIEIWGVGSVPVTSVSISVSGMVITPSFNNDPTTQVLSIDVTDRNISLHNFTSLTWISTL
Regarding `O=c1oc2cc(O)ccc2c2oc3cc(O)ccc3c12` [5,14-dihydroxy-8,17-dioxatetracyclo[8.7.0.0^{2,7}.0^{11,16}]heptadeca-1(10),2,4,6,11(16),12,14-heptaen-9-one], 6 µM corresponded to half-maximal inhibition (IC50).

Consider `COc1ccc2c(c1OC)O[C@H]1c3ccc(O)cc3OC[C@@H]21`, for which half-maximal inhibition (IC50) required 174 µM.

For `COc1ccc2c(c1)OC[C@H]1c3ccc(OC)c(O)c3O[C@@H]21`, the IC50 (commonly the concentration needed to halve the response being measured) was determined as 128 µM.
